From patent US7273878B2, “Difluoroalkene derivative, pest control agent containing the same, and intermediate therefor” (Kumiai Chemical Industry Co., Ltd., priority 2001, dated 2007)

Assays:
Format in all cases: in vivo
ddy mouse (Slc:ddy) = assay: Oral acute toxicity test; design: key: 0/3 means none of 3 recipient animals died; 1/3 means one out of 3 recipient animals died; 2/3 means 2 out of 3 recipient animals died; 3/3 means all 3 recipient animals died; settings: oral 30 mg/kg, mortality investigated for 7 days; for Test result Female (mortality, animals died out of 3): female ddy mouse; for Test result Male (mortality, animals died out of 3): male ddy mouse
Experimental: Oral acute toxicity test was conducted according to the method described in the guideline in “Guideline for the Preparation of Test Report on the Toxicity Studies”, published by the Ministry of Agriculture, Forestry and Fisheries of Japan. Experimental animals, 3 each of male and female of 7 weeks aged ddy mouse (Slc:ddy), were obtained from SLC Japan Inc. The compounds of the present invention and the reference substances were suspended in 0.5% sodium carboxymethyl cellulose or corn oil to give a 30 (mg/kg) equivalent amount for a dosage of 10 ml per 1 kg of body weight. The suspensions were inoculated using a sonde directly into the stomach of test animals which were fasted for 3 hours before inoculation. The test animals were fasted for additional 3 hours after inoculation, and the mortality of the inoculated animal was investigated for 7 days. In this table, 0/3 means none of 3 recipient animals died, 1/3 means one out of 3 recipient animals died, 2/3 means 2 out of 3 recipient animals died, 3/3 means all 3 recipient animals died.

Tetranychus urticae = assay: Prevention/extermination test against Tetranychus urticae (0.8 ppm); settings: 312 h, 0.8 ppm active ingredient, soybean seedlings inoculated with imago, 25° C., after 13 days, read-out: prevention/extermination titer
Experimental: The wettable powder prepared according to the above Preparation Example 2 was diluted with water to a concentration of 500 ppm as a concentration of active ingredient. Soybean seedlings which had previously been inoculated with the imago of Tetranychus urticae were soaked in the test solution, then air dried. The treated soybean seedlings were left at the constant temperature of 25° C. After 13 days from the treatment, the number of surviving mites was counted, and the prevention/extermination titer was calculated according to the formula 2 below.
The wettable powder prepared according to the above Preparation Example 2 was diluted with water to a concentration of 0.8 ppm as a concentration of active ingredient. The same experiment as in Test Example 2 was carried out, and the prevention/extermination titer was calculated according to the formula 2.
In this test, representative compounds having the acaricidal effect with more than 90 of prevention/extermination titer include compound No. 63, 93, 77, 81, 105, 169, 190, 196 and 208.

Nilaparvata lugenis = assay: Insecticidal test for Nilaparvata lugenis; settings: 144 h, 500 ppm active ingredient (wettable powder), 4-instar larvae on germinated rice paddy, 25° C., after 6 days, read-out: mortality rate
Experimental: The wettable powder prepared according to the above Preparation Example 2 was diluted with water to a concentration of 500 ppm as a concentration of active ingredient. After soaking the germinated rice paddy in the test solution, the paddy was transferred into a 60 ml volume of plastic cup. Ten (10) heads of 4-instar larvae of Nilaparvata lugenis were inoculated on the paddy and capped, then left at the constant temperature of 25° C. After 6 days from the inoculation, the number of surviving insects was counted, and mortality rate of the insect was calculated according to the following formula 1. mortality rate (%)=[(10−number of surviving insect in the test field)/10]×100 (1)

With `CCCCOc1ncc(C(=O)OCCC(C)=C(F)F)c(C)n1` [Compound 105, 4,4-difluoro-3-methyl-3-butenyl 2-butoxy-4-methyl-pyrimidine-5-carboxylate] the “Test result Female (mortality, animals died out of 3)” value (“Test result Female” for short) (ddy mouse (Slc:ddy)) was 0/3, the “Test result Male (mortality, animals died out of 3)” value (“Test result Male” for short) (ddy mouse (Slc:ddy)) was 0/3 and the pest or weed control at 0.8 ppm (Tetranychus urticae) was > 90%.

For `CC(CCOC(=O)c1ccc(OC2CCCC2)nc1)=C(F)F` [Compound 81, 4,4-difluoro-3-methyl-3-butenyl 6-cyclopentyloxy-nicotinate], the “Test result Female” value (ddy mouse (Slc:ddy)) was 0/3, the “Test result Male” value (ddy mouse (Slc:ddy)) was 0/3 and the pest or weed control at 0.8 ppm (Tetranychus urticae) was > 90%.

In the case of `CCCCOc1ccc(C(=O)OCCC(C)=C(F)F)cn1` [Compound 77, 4,4-difluoro-3-methyl-3-butenyl 6-butoxynicotinate], the “Test result Female” value (ddy mouse (Slc:ddy)) is reported as 0/3, the “Test result Male” value (ddy mouse (Slc:ddy)) is reported as 0/3 and the pest or weed control at 0.8 ppm (Tetranychus urticae) is reported as > 90%.

For `CC(CCOC(=O)c1cn(-c2ccccc2)nc1C)=C(F)F` [Compound 196, 4,4-difluoro-3-methyl-3-butenyl 3-methyl-1-phenyl-1H-pyrazole-4-carboxylate], the pest or weed control at 0.8 ppm (Tetranychus urticae) was > 90%.

`CC(CCOC(=O)c1sc(C2CCCCC2)nc1C)=C(F)F` [Compound 169, 4,4-difluoro-3-methyl-3-butenyl 2-cyclohexyl-4-methylthiazole-5-carboxylate] was tested, and the mortality at 500 ppm (Nilaparvata lugenis) was ≥ 90% and the pest or weed control at 0.8 ppm (Tetranychus urticae) was > 90%.

`CC(CCOC(=O)c1sc(-c2ccccc2)nc1C)=C(F)F` [Compound 63, 4,4-difluoro-3-methyl-3-butenyl 4-methyl-2-phenyl-thiazole-5-carboxylate] was tested, and the “Test result Female” value (ddy mouse (Slc:ddy)) was 0/3, the “Test result Male” value (ddy mouse (Slc:ddy)) was 0/3 and the pest or weed control at 0.8 ppm (Tetranychus urticae) was > 90%.

`CC(CCOC(=O)c1cnc(-c2ccccc2)s1)=C(F)F` [Compound 190, 4,4-difluoro-3-methyl-3-butenyl 2-phenylthiazole-5-carboxylate] was tested, and the pest or weed control at 0.8 ppm (Tetranychus urticae) was > 90%.

For `CC(CCOC(=O)c1cnc(-c2ccccc2)nc1C)=C(F)F` [Compound 93, 4,4-difluoro-3-methyl-3-butenyl 4-methyl-2-phenyl-pyrimidine-5-carboxylate], the “Test result Female” value (ddy mouse (Slc:ddy)) was 0/3, the “Test result Male” value (ddy mouse (Slc:ddy)) was 0/3 and the pest or weed control at 0.8 ppm (Tetranychus urticae) was > 90%.
